Holding throughout (assay): Fluorescence dose-response of purified binding-pocket-engineered sensors (0.75 uM) in 100 mM Tris-HCl pH 7.5, room temperature, 1 mM ATP, 2.5 mM MgCl2, excitation 460 or 480 nm, emission 510 nm; logistic five-parameter fit.
Format in all cases: biochemical
What all share (conditions): n = 3

The target in one assay is T1, GECFINDER-Leu3 (Aneurinibacillus migulanus, UniProt P0C061, A301G/S447N/T278L).
T1 construct: gene grsA
The protocol:
(§1) Fig. 4 Engineering ligand specificity of GrsA-PheA for generating […]s. a The selectivity-conferring code of Phe and Leu A domains. b–f Dose–response curve of purified […]s with increasing concentrations of ligands in 100 mM Tris-HCl buffer (pH=7.5). All data shown are means ± S.D. (n = 3 biologically independent samples). g A series of […] reactions was tested to show the […]’s specificity with 20 proteinogenic amino acids. The values on the heatmap represent the ΔF/F0 value normalized to each […]’s maximal ΔF/F0 value ((ΔF/F0)/maximal ΔF/F0). The concentrations of 20 amino acids were 100 μM. The color indicates the average value of three independent biological replicates after 15 min. All data shown are means ± S.D. (n = 3 biologically independent samples). Source data are provided as a Source data file.
(§2) The study conducted dose–response curve, substrate specificity, and fluorescent spectrum analyses in 100-mM Tris buffer (pH = 7.5), while pH stability experiments were performed in 100-mM Tris buffer at three different pH values (6.5, 7.5, and 8.5) at room temperature. […] protein at a concentration of 0.75 μM, various small molecule concentrations, 1 mM ATP, and 2.5 mM MgCl2 were used in the experiments. Fluorescent signals were detected using a Microplate Reader (Synergy H4, Bio Tek) at an excitation/emission wavelength of 460 nm/510 nm or 480 nm/510 nm. The dose-response curve was determined immediately after the addition of the analyte. The total duration of the measurement was 15 min, with readings taken at one-minute intervals. The dose-response curve was plotted using the fluorescence values obtained after achieving stability in the fluorescence signal. The dose-response curves were fitted using the logistic model LOGISTIC5 available in Origin 2021, which could provide a more adequate fit to asymmetric dose-response data[62],[63]. Excitation spectra were scanned from 300 to 540 nm with a step size of 5 nm, and the emission wavelength was set to 560 nm. Emission spectra were scanned from 470 to 700 nm with a step size of 5 nm, and the excitation wavelength was set to 450 nm. The thermal stability of […] was analyzed using the UNcle multifunctional protein stability analysis system. Measurements were performed in 20 mM MOPS buffer with 2 mM DTT at a sample concentration of 1 mg/mL. Absolute fluorescence quantum yields were measured using an absolute photoluminescence quantum yield spectrometer (FS5, Edinburgh).

In the next assay the target is T2, GECFINDER-Leu2 (Aneurinibacillus migulanus, UniProt P0C061, A301G/I277L/T278L).
T2 construct: gene grsA
T2 sequence (P0C061 1-617 I277L/T278L/A301G): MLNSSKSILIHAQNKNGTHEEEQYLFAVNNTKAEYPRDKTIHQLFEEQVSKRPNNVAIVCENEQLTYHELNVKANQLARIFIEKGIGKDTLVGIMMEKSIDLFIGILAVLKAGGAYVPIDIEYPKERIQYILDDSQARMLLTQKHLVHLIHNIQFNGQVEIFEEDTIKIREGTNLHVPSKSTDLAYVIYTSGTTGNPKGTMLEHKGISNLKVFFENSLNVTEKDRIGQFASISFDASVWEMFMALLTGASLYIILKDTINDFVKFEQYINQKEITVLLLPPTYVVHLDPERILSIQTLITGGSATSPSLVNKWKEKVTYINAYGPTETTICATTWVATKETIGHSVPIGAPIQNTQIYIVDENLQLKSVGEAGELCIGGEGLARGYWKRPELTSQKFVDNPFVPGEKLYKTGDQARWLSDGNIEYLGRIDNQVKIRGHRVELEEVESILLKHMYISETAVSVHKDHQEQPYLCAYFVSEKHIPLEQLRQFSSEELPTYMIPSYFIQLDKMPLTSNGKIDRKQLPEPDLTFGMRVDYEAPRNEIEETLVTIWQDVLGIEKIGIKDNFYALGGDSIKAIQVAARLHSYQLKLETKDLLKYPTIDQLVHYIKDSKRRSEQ
As for the experimental part:
as §1, §2

For a further assay, the target named is T3, GECFINDER-Leu1 (Aneurinibacillus migulanus, UniProt P0C061, A301G/T278M).
T3 construct: gene grsA; GrsA-PheA-PCP
T3 sequence (P0C061 1-617 T278M/A301G): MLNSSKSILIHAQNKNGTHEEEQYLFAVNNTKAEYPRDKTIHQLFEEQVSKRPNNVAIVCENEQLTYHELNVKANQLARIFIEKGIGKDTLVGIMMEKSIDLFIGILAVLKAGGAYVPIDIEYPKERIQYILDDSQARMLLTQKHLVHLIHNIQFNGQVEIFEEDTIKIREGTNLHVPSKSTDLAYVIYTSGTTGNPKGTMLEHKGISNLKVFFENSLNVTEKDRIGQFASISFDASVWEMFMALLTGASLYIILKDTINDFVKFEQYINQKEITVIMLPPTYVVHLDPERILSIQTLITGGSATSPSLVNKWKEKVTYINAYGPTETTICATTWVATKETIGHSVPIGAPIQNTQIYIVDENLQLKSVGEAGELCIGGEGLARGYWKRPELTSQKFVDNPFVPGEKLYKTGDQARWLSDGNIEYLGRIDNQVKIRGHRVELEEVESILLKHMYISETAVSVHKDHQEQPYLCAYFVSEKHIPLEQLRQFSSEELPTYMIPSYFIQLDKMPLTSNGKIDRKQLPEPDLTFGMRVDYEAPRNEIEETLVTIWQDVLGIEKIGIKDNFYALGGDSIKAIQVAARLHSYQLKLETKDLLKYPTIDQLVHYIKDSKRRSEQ
The protocol:
as §1, §2

The target of another assay is T4, GECFINDER-Leu4 (Aneurinibacillus migulanus, UniProt P0C061, A301G/I277L/S447N/T278L).
T4 construct: gene grsA
T4 sequence (P0C061 1-617 I277L/T278L/A301G/S447N): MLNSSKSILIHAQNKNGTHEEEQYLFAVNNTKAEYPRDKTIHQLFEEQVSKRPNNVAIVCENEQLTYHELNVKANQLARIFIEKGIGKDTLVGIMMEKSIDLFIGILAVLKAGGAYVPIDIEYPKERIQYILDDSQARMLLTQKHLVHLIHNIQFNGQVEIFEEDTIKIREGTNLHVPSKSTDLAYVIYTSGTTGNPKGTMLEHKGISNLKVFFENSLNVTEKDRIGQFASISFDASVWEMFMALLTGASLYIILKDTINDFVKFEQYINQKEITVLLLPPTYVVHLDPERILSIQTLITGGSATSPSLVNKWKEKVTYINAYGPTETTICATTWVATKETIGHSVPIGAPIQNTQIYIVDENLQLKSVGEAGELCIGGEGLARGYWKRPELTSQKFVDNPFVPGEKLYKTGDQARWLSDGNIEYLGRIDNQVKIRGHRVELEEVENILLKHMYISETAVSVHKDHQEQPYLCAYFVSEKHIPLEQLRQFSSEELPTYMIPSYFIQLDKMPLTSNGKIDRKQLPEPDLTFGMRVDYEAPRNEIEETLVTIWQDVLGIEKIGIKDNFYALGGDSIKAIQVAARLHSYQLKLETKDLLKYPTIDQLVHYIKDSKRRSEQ
The protocol: as §1, §2

Here are results for one molecule from publication PMC10590383, “Repurposing conformational changes in ANL superfamily enzymes to rapidly generate biosensors for organic and amino acids” (Nature Communications, 2023).

Molecules are shown by their SMILES.

T1 sequence (P0C061 1-617 T278L/A301G/S447N): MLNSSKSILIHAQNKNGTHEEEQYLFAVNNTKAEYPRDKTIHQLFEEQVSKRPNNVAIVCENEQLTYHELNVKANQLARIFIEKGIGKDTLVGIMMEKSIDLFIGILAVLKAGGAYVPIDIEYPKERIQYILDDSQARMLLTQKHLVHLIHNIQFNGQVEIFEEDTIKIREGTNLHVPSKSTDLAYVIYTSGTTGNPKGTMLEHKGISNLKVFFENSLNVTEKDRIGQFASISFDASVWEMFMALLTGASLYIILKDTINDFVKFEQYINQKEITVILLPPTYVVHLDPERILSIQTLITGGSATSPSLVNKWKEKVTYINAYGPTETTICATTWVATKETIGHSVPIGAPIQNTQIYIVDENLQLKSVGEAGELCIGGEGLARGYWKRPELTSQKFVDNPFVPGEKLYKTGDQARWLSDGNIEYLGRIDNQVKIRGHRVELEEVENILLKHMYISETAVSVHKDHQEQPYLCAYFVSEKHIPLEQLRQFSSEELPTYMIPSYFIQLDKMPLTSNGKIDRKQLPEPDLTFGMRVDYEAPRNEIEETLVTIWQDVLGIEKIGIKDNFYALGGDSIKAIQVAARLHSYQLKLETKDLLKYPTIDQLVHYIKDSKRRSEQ

As usually defined, the EC50 is the concentration that produces a half-maximal response. For `CC(C)C[C@H](N)C(=O)O` [Leu, leucine], the EC50 at GECFINDER-Leu3 was 200 ± 7.76 µM; on GECFINDER-Leu2, 207 ± 37.2 µM; on GECFINDER-Leu1 it was 58.4 ± 24.8 µM; on GECFINDER-Leu4, 106 ± 24.5 µM.
